This passage reports IC50 results from patent publication US20220220128A1, “HETEROCYCLIC COMPOUNDS AS KINASE INHIBITORS, COMPOSITIONS COMPRISING THE HETEROCYCLIC COMPOUND, AND METHODS OF USE THEREOF” (JS Innopharm (Shanghai) Ltd, priority 2019, published 2022).

The target in one experiment is T1, human RET kinase (Homo sapiens, UniProt P07949).
T1 construct: purchased Carna 08-159
The experiment is described as follows: RET Kinase Assay (LanthaScreen TR-FRET enzymatic assay). The format is biochemical. Conditions: 7 nM RET, 23 μM ATP. In outline:
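Human RET (7 nM) preincubated 15 min with compound in 50 mM HEPES pH 7.5, 0.0015% Brij-35, then reacted with 3 μM FAM-P2 peptide and 23 μM ATP for 1 h at 28° C.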

The target in the next experiment is T2, human KDR kinase (Homo sapiens, UniProt P35968).
T2 construct: purchased Carna 08-191
T2 sequence (P35968 20-1356): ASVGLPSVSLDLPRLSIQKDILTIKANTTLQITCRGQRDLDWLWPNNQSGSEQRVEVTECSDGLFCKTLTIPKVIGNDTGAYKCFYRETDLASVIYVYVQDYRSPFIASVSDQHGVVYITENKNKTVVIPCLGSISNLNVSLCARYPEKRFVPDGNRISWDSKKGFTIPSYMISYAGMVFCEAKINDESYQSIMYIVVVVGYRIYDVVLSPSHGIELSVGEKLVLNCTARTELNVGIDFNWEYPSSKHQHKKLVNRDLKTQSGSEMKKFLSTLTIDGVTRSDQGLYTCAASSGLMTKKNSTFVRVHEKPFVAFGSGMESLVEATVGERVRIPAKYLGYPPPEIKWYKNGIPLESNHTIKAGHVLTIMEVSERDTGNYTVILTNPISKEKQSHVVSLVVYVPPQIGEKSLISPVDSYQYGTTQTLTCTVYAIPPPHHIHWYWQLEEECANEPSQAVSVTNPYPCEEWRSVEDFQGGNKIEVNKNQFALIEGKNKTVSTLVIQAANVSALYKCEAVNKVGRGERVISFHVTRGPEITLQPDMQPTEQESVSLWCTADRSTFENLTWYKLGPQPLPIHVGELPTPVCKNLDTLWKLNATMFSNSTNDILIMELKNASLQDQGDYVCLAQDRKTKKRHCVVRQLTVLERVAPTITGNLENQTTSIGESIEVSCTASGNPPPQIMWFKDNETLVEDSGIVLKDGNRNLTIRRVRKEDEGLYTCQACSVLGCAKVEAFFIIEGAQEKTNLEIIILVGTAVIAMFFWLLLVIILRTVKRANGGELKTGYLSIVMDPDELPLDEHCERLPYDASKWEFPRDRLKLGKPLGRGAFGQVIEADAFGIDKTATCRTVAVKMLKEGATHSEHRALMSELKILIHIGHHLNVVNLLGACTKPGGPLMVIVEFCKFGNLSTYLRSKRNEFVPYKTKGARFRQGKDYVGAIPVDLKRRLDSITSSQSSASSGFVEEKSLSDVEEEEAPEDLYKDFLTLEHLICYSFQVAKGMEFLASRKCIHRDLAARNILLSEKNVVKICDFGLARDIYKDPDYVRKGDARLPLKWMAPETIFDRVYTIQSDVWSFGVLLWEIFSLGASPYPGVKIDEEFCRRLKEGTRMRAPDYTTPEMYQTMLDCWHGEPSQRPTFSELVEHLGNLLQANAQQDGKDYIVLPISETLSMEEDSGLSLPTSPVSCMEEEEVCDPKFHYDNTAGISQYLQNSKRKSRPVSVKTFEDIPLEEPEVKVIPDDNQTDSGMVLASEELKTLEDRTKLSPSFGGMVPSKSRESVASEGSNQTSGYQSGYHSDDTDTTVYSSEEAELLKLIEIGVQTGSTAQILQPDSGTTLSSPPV
The experiment is described as follows: KDR Kinase Assay (LanthaScreen TR-FRET enzymatic assay). The experiment is classed as biochemical. To be noted: 1.2 nM KDR, 92 μM ATP. A digest of the protocol: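 Recombinant human KDR (1.2 nM) preincubated 15 min at room temperature with compound, then reacted with 3 μM FAM-P22 peptide and 92 μM ATP in 50 mM HEPES pH 7.5 for 1 h at 28° C. EDTA stop, then TR-FRET acceptor/donor ratio read; percent of 1% DMSO control fitted sigmoidally for IC50.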
(TR-FRET usually uses a lanthanide donor and a delayed reading to cut background.)

For a further experiment, the system named is TT cells. The experiment is described as follows: TT Cell Proliferation Assay (WST-8, 8 days). The experiment is classed as cell-based. To be noted: growth inhibition in TT cells, read-out: TT Cellular Activity. A digest of the protocol: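 TT cells, 6,000/well in RPMI-1640 with 10% FBS, attached 24 h, then exposed to compound at 5 μM down to 0.0005 μM final (0.5% DMSO) for 8 days at 37 °C. WST-8 added for 5 h, absorbance at 450 nm. IC50 calculated from the dilution series.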
(In general: Formazan colour is commonly taken as a measure of viable cells.)

Structures are written as SMILES. Read-outs that look alike come from different tables or passages of the source. Where only a bound is given, the exact number is not on record here.

T1 sequence (P07949 29-1114): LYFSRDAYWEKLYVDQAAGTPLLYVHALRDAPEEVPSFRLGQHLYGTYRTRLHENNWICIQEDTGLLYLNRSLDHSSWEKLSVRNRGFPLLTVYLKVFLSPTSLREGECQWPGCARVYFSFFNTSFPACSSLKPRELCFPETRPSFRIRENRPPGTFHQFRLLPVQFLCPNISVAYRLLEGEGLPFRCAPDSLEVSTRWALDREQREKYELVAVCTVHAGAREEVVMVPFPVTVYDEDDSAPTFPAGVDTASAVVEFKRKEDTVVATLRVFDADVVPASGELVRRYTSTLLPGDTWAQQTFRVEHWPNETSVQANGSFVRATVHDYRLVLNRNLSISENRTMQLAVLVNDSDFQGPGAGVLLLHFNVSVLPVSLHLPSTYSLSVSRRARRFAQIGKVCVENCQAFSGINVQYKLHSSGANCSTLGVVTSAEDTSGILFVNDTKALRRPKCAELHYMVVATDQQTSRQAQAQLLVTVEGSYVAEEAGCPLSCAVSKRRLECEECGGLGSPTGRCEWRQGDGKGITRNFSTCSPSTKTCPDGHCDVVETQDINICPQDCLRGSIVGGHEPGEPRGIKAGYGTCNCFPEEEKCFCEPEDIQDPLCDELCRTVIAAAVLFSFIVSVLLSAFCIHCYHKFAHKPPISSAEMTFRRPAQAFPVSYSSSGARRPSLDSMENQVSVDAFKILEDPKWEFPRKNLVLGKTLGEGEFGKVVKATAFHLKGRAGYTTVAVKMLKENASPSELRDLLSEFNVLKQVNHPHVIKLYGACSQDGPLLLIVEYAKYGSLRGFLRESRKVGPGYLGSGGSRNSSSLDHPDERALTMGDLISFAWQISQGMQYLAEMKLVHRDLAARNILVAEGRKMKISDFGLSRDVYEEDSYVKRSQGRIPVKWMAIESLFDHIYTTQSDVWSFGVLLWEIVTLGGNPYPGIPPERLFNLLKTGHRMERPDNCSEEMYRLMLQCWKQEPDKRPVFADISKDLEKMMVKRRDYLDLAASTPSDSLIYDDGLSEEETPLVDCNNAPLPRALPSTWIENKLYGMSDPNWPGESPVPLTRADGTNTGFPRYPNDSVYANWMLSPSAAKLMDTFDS

For the compound `Cn1cc(-c2cc(-c3ccc(N4C[C@@H]5[C@@H](CNC(=O)c6ncccc6C(F)(F)F)[C@@H]5C4)nc3)c3c(C#N)cnn3c2)cn1` [Example 86, N-(((1R,5S,6s)-3-(5-(3-cyano-6-(1-methyl-1H-pyrazol-4-yl)pyrazolo[1,5-a]pyridin-4-yl)pyridin-2-yl)-3-azabicyclo[3.1.0]hexan-6-yl)methyl)-3-(trifluoromethyl)picolinamide], the IC50 is no more than 0.01 µM at human RET kinase, 0.01 to 0.05 µM on human KDR kinase and no more than 0.01 µM with TT cells.

For the compound `Cn1cc(-c2cc(-c3ccc(N4C[C@@H]5[C@@H](CNC(=O)C(C)(C)C)[C@@H]5C4)nc3)c3c(C#N)cnn3c2)cn1` [Example 87, N-(((1R,5S,6s)-3-(5-(3-cyano-6-(1-methyl-1H-pyrazol-4-yl)pyrazolo[1,5-a]pyridin-4-yl)pyridin-2-yl)-3-azabicyclo[3.1.0]hexan-6-yl)methyl)pivalamid], the IC50 against human RET kinase is no more than 0.01 µM; against human KDR kinase it was 0.01 to 0.05 µM; with TT cells (Homo sapiens, TT, 192 h), no more than 0.01 µM.

Consider `CC(C)CC(=O)NC[C@@H]1[C@H]2CN(c3ccc(-c4cc(-c5cnn(C)c5)cn5ncc(C#N)c45)cn3)C[C@@H]12` [Example 88, N-(((1R,5S,6s)-3-(5-(3-cyano-6-(1-methyl-1H-pyrazol-4-yl)pyrazolo[1,5-a]pyridin-4-yl)pyridin-2-yl)-3-azabicyclo[3.1.0]hexan-6-yl)methyl)-3-methylbutanamide], for which the IC50 is no more than 0.01 µM on human RET kinase; 0.01 to 0.05 µM at human KDR kinase; no more than 0.01 µM in the experiment on TT cells (Homo sapiens, TT, 192 h).

As to `Cn1cc(-c2cc(-c3ccc(N4C5CC6CC4CC(NC(=O)c4ncccc4Cl)(C6)C5)nc3)c3c(C#N)cnn3c2)cn1` [Example 89, 3-chloro-N-((1R,3S,5s,7s)-2-(5-(3-cyano-6-(1-methyl-1H-pyrazol-4-yl)pyrazolo[1,5-a]pyridin-4-yl)pyridin-2-yl)-2-azaadamantan-5-yl)picolinamide], the IC50 was no more than 0.01 µM against human RET kinase; no more than 0.01 µM on human KDR kinase; no more than 0.01 µM in the experiment on TT cells (Homo sapiens, TT, 192 h).

Consider `Cn1cc(-c2cc(-c3ccc(N4C[C@@H]5C[C@@](C)(NC(=O)c6ncccc6F)C[C@@H]5C4)nc3)c3c(C#N)cnn3c2)cn1` [Example 91, N-((3aR,5s,6aS)-2-(5-(3-cyano-6-(1-methyl-1H-pyrazol-4-yl)pyrazolo[1,5-a]pyridin-4-yl)pyridin-2-yl)-5-methyloctahydrocyclopenta[c]pyrrol-5-yl)-3-fluoropicolinamide], for which the IC50 on human RET kinase is no more than 0.01 µM; on human KDR kinase, no more than 0.01 µM; in the experiment with TT cells (Homo sapiens, TT, 192 h), no more than 0.01 µM.

As to `CC(C)(O)COc1cc(-c2ccc(N3C[C@@H]4CN(S(=O)(=O)c5c(F)cccc5Cl)C[C@@H]4C3)nc2)c2c(C#N)cnn2c1` [Example 92, 4-(6-((3aR,6aS)-5-((2-chloro-6-fluorophenyl)sulfonyl)hexahydropyrrolo[3,4-c]pyrrol-2(1H)-yl)pyridin-3-yl)-6-(2-hydroxy-2-methylpropoxy)pyrazolo[1,5-a]pyridine-3-carbonitrile], the IC50 on human RET kinase was no more than 0.01 µM; against human KDR kinase it was 0.01 to 0.05 µM; in the experiment with TT cells (Homo sapiens, TT, 192 h), 0.01 to 0.05 µM.

`Cn1ccc(-c2cc(-c3ccc(N4C[C@@H]5C[C@@](C)(NC(=O)c6c(F)cccc6Cl)C[C@@H]5C4)nc3)c3c(C#N)cnn3c2)n1` [Example 93, 2-chloro-N-((3aR,5s,6aS)-2-(5-(3-cyano-6-(1-methyl-1H-pyrazol-3-yl)pyrazolo[1,5-a]pyridin-4-yl)pyridin-2-yl)-5-methyloctahydrocyclopenta[c]pyrrol-5-yl)-6-fluorobenzamide]: the IC50 against human RET kinase was no more than 0.01 µM; against human KDR kinase, 0.01 to 0.05 µM; with TT cells (Homo sapiens, TT, 192 h) it was 0.01 to 0.05 µM.

Regarding `CC(C)(O)COc1cc(-c2ccc(N3C[C@@H]4[C@@H](CNC(=O)c5ncccc5Cl)[C@@H]4C3)nc2)c2c(C#N)cnn2c1` [Example 95, 3-chloro-N-(((1R,5S,6s)-3-(5-(3-cyano-6-(2-hydroxy-2-methylpropoxy)pyrazolo[1,5-a]pyridin-4-yl)pyridin-2-yl)-3-azabicyclo[3.1.0]hexan-6-yl)methyl)picolinamide], the IC50 is no more than 0.01 µM against human RET kinase; greater than 0.1 µM against human KDR kinase; 0.01 to 0.05 µM in the experiment with TT cells (Homo sapiens, TT, 192 h).

Take `CC(C)C(O)C(=O)NC12CC3CC(C1)N(c1ccc(-c4cc(OCC(C)(C)O)cn5ncc(C#N)c45)cn1)C(C3)C2` [Example 99, N-((1R,3 S,5s,7s)-2-(5-(3-cyano-6-(2-hydroxy-2-methylpropoxy)pyrazolo[1,5-a]pyridin-4-yl)pyridin-2-yl)-2-azaadamantan-5-yl)-2-hydroxy-3-methylbutanamide]: the IC50 is no more than 0.01 µM against human RET kinase; 0.01 to 0.05 µM against human KDR kinase; 0.01 to 0.05 µM in the experiment with TT cells (Homo sapiens, TT, 192 h).

For the compound `Cn1ccc(-c2cc(-c3cnc(N4C[C@@H]5C[C@@](C)(NC(=O)c6c(F)cccc6Cl)C[C@@H]5C4)cn3)c3c(C#N)cnn3c2)n1` [Example 100, 2-chloro-N-((3aR,5s,6aS)-2-(5-(3-cyano-6-(1-methyl-1H-pyrazol-3-yl)pyrazolo[1,5-a]pyridin-4-yl)pyrazin-2-yl)-5-methyloctahydrocyclopenta[c]pyrrol-5-yl)-6-fluorobenzamide], the IC50 against human RET kinase is no more than 0.01 µM; on human KDR kinase, 0.01 to 0.05 µM; with TT cells (Homo sapiens, TT, 192 h), no more than 0.01 µM.

`Cn1ccc(-c2cc(-c3ccc(N4C[C@@H]5C[C@@](C)(NC(=O)c6ncccc6F)C[C@@H]5C4)nc3)c3c(C#N)cnn3c2)n1` [Example 123, N-((3aR,5s,6aS)-2-(5-(3-cyano-6-(1-methyl-1H-pyrazol-3-yl)pyrazolo[1,5-a]pyridin-4-yl)pyridin-2-yl)-5-methyloctahydrocyclopenta[c]pyrrol-5-yl)-3-fluoropicolinamide]: the IC50 against human RET kinase is no more than 0.01 µM; at human KDR kinase it was 0.01 to 0.05 µM; in the experiment on TT cells (Homo sapiens, TT, 192 h) it was no more than 0.01 µM.

With `CC(O)COc1cc(-c2ccc(N3C[C@@H]4[C@@H](CNC(=O)c5ncccc5Cl)[C@@H]4C3)nc2)c2c(C#N)cnn2c1` (stereo partly drawn) [Example 124, 3-chloro-N-(((1R,5S,6s)-3-(5-(3-cyano-6-(2-hydroxypropoxy)pyrazolo[1,5-a]pyridin-4-yl)pyridin-2-yl)-3-azabicyclo[3.1.0]hexan-6-yl)methyl)picolinamide], the IC50 was no more than 0.01 µM against human RET kinase; greater than 0.1 µM against human KDR kinase; 0.01 to 0.05 µM in the experiment on TT cells (Homo sapiens, TT, 192 h).

As to `COc1ccc(C(=O)N[C@]2(C)C[C@H]3CN(c4ccc(-c5cc(OCC(C)(C)O)cn6ncc(C#N)c56)cn4)C[C@H]3C2)cn1` [Example 126, N-((3aR,5s,6aS)-2-(5-(3-cyano-6-(2-hydroxy-2-methylpropoxy)pyrazolo[1,5-a]pyridin-4-yl)pyridin-2-yl)-5-methyloctahydrocyclopenta[c]pyrrol-5-yl)-6-methoxynicotinamide], the IC50 was in the range of 0.01 to 0.05 µM on human RET kinase; 0.01 to 0.05 µM against human KDR kinase; 0.05 to 0.1 µM in the experiment on TT cells (Homo sapiens, TT, 192 h).

Consider `CC(C)(O)COc1cc(-c2ccc(N3C[C@@H]4C[C@@](C)(NC(=O)c5ncccc5C#N)C[C@@H]4C3)nc2)c2c(C#N)cnn2c1` [Example 127, 3-cyano-N-((3aR,5s,6aS)-2-(5-(3-cyano-6-(2-hydroxy-2-methylpropoxy)pyrazolo[1,5-a]pyridin-4-yl)pyridin-2-yl)-5-methyloctahydrocyclopenta[c]pyrrol-5-yl)picolinamide], for which the IC50 on human RET kinase was no more than 0.01 µM; against human KDR kinase it was greater than 0.1 µM; in the experiment on TT cells (Homo sapiens, TT, 192 h), 0.01 to 0.05 µM.

Consider `CC(C)(O)COc1cc(-c2ccc(N3C[C@@H]4C[C@@](C)(NC(=O)c5ncccc5F)C[C@@H]4C3)nc2)c2c(C#N)cnn2c1` [Example 128, N-((3aR,5s,6aS)-2-(5-(3-cyano-6-(2-hydroxy-2-methylpropoxy)pyrazolo[1,5-a]pyridin-4-yl)pyridin-2-yl)-5-methyloctahydrocyclopenta[c]pyrrol-5-yl)-3-fluoropicolinamide], for which the IC50 was no more than 0.01 µM against human RET kinase; 0.01 to 0.05 µM against human KDR kinase; 0.01 to 0.05 µM in the experiment on TT cells (Homo sapiens, TT, 192 h).

Take `CC(C)(O)COc1cc(-c2ccc(N3C4CC5CC3CC(NS(C)(=O)=O)(C5)C4)nc2)c2c(C#N)cnn2c1` [Example 131, N-((1R,3S,5s,7s)-2-(5-(3-cyano-6-(2-hydroxy-2-methylpropoxy)pyrazolo[1,5-a]pyidin-4-yl)pyridin-2-yl)-2-azaadamantan-5-yl)methanesulfonamide]: the IC50 was no more than 0.01 µM at human RET kinase; 0.05 to 0.1 µM at human KDR kinase; 0.01 to 0.05 µM with TT cells (Homo sapiens, TT, 192 h).

Turning to `Cn1ccc(-c2cc(-c3cnc(N4C[C@@H]5C[C@@](C)(NC(=O)c6ncccc6F)C[C@@H]5C4)cn3)c3c(C#N)cnn3c2)n1` [Example 140, N-((3aR,5s,6aS)-2-(5-(3-cyano-6-(1-methyl-1H-pyrazol-3-yl)pyrazolo[1,5-a]pyridin-4-yl)pyrazin-2-yl)-5-methyloctahydrocyclopenta[c]pyrrol-5-yl)-3-fluoropicolinamide], the IC50 at human RET kinase was no more than 0.01 µM; against human KDR kinase it was 0.01 to 0.05 µM; with TT cells (Homo sapiens, TT, 192 h), 0.01 to 0.05 µM.

As to `Cn1cc(-c2cc(-c3cnc(N4C[C@@H]5C[C@@](C)(NC(=O)c6c(F)cccc6Cl)C[C@@H]5C4)cn3)c3c(C#N)cnn3c2)cn1` [Example 141, 2-chloro-N-((3aR,5s,6aS)-2-(5-(3-cyano-6-(1-methyl-1H-pyrazol-4-yl)pyrazolo[1,5-a]pyridin-4-yl)pyrazin-2-yl)-5-methyloctahydrocyclopenta[c]pyrrol-5-yl)-6-fluorobenzamide], the IC50 at human RET kinase is no more than 0.01 µM; on human KDR kinase it was no more than 0.01 µM; in the experiment on TT cells (Homo sapiens, TT, 192 h), no more than 0.01 µM.
